PubChem BioAssay AID330 (DTP/NCI, 2004)
Several values for one entry are separate records, joined by “and”; a condition that tells them apart may be missing. Equal values may be shown once. Toxic doses and inconclusive results are not listed. Rule for the calls: active = survival T/C of 150% or more; inactive = T/C below 125% in these data.

System: P388 leukemia ip, CD2F1 mice, survival T/C
Experiment: NCI In Vivo Anticancer Drug Screen. Data for tumor model P388 Leukemia (intraperitoneal) in CD2F1 (CDF1) mice
Conditions: endpoint: median survival time, higher = longer survival
Outline: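 Mice carrying the transplanted tumor received test compound or vehicle. Survival was recorded in each group, and the value is the treated-group measurement divided by that of the vehicle-treated control group.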

[1] = dose: 50.0 mg/kg/injection, schedule: Q01DX009 (ip), vehicle: saline with Tween-80
[2] = dose: 100.0 mg/kg/injection, schedule: Q01DX009 (ip), vehicle: saline with Tween-80
[3] = dose: 200.0 mg/kg/injection, schedule: Q01DX009 (ip), vehicle: saline with Tween-80
[4] = dose: 50.0 mg/kg/injection, schedule: Q01DX005 (ip), vehicle: saline with Tween-80
[5] = dose: 100.0 mg/kg/injection, schedule: Q01DX005 (ip), vehicle: saline with Tween-80
[6] = dose: 60.0 mg/kg/injection, schedule: Q01DX005 (ip), vehicle: Klucel (hydroxypropylcellulose) (HPC)
[7] = dose: 120.0 mg/kg/injection, schedule: Q01DX005 (ip), vehicle: Klucel (hydroxypropylcellulose) (HPC)
[8] = dose: 240.0 mg/kg/injection, schedule: Q01DX005 (ip), vehicle: Klucel (hydroxypropylcellulose) (HPC)
[9] = dose: 100.0 mg/kg/injection, schedule: Q01DX009 (ip), vehicle: saline
[10] = dose: 200.0 mg/kg/injection, schedule: Q01DX009 (ip), vehicle: saline
[11] = dose: 12.5 mg/kg/injection, schedule: Q01DX009 (ip), vehicle: saline with Tween-80
[12] = dose: 25.0 mg/kg/injection, schedule: Q01DX009 (ip), vehicle: saline with Tween-80
[13] = dose: 50.0 mg/kg/injection, schedule: Q01DX009 (ip), vehicle: Klucel (hydroxypropylcellulose) (HPC)
[14] = dose: 100.0 mg/kg/injection, schedule: Q01DX009 (ip), vehicle: Klucel (hydroxypropylcellulose) (HPC)
[15] = dose: 200.0 mg/kg/injection, schedule: Q01DX009 (ip), vehicle: Klucel (hydroxypropylcellulose) (HPC)
[16] = dose: 12.5 mg/kg/injection, schedule: Q01DX005 (ip), vehicle: saline with Tween-80
[17] = dose: 25.0 mg/kg/injection, schedule: Q01DX005 (ip), vehicle: saline with Tween-80
[18] = dose: 100.0 mg/kg/injection, schedule: Q04DX003 (ip), vehicle: saline
[19] = dose: 200.0 mg/kg/injection, schedule: Q04DX003 (ip), vehicle: saline
[20] = dose: 400.0 mg/kg/injection, schedule: Q04DX003 (ip), vehicle: saline
[21] = dose: 50.0 mg/kg/injection, schedule: Q01DX005 (ip), vehicle: saline
[22] = dose: 100.0 mg/kg/injection, schedule: Q01DX005 (ip), vehicle: saline
[23] = dose: 200.0 mg/kg/injection, schedule: Q01DX005 (ip), vehicle: saline

Measured: T/C

O=NNc1cccnc1
inactive: dose: 3.12 mg/kg/injection, schedule: Q01DX009 (ip), vehicle: water 108 % of control | dose: 6.25 mg/kg/injection, schedule: Q01DX009 (ip), vehicle: water 101 % of control and 105 % of control | dose: 12.5 mg/kg/injection, schedule: Q01DX009 (ip), vehicle: water 107 % of control and 110 % of control

CCOC1OCN(CCCN(C)C)CC1(C)C (stereo not given)
inactive: [1] 108 % of control | [2] 123 % of control | [3] 123 % of control

COc1ccc(C2C3C(=O)OCCOC(=O)C3C2c2ccc(OC)c(OC)c2)cc1OC (stereo not given)
inactive: [4] 99 % of control | [5] 104 % of control | dose: 200.0 mg/kg/injection, schedule: Q01DX005 (ip), vehicle: saline with Tween-80 99 % of control

O=C1C2=C(Nc3cc([N+](=O)[O-])ccc3N2)OC1c1ccccc1Cl (stereo not given)
inactive: [6] 102 % of control | [7] 98 % of control | [8] 98 % of control

O=C(O)CS(=O)(=O)CCS(=O)(=O)CC(=O)O
inactive: dose: 50.0 mg/kg/injection, schedule: Q01DX009 (ip), vehicle: saline 107 % of control | [9] 105 % of control | [10] 88 % of control

COc1ccc2[nH]c3c(c2c1)CCNC3CC(C)CCC=C(C)C (stereo not given)
inactive: [11] 99 % of control | [12] 98 % of control

COc1cccc(-c2cc(C(=O)O)c3cc4ccccc4cc3n2)c1OC
inactive: [13] 100 % of control | [14] 101 % of control | [15] 100 % of control

CC(=O)c1ccc(C)cc1C
inactive: [12] 98 % of control | [1] 98 % of control | [2] 104 % of control and 110 % of control | [3] 118 % of control

COc1ccc2[nH]c3c(c2c1)CNCC3
inactive: [9] 110 % of control | [10] 112 % of control

CCCCCCOC(=O)c1ccc(I)cc1
inactive: [1] 97 % of control | [2] 93 % of control | [3] 100 % of control

CS/C(=C/c1ccc2ccccc2[n+]1C)N1CCOCC1
inactive: dose: 6.25 mg/kg/injection, schedule: Q01DX005 (ip), vehicle: saline with Tween-80 105 % of control and 107 % of control and 108 % of control | [16] 103 % of control and 105 % of control and 119 % of control | [17] 110 % of control (2×) and 121 % of control

Cc1nc(-c2ccccc2)nc2c1nc(C(C)C)n2Nc1ccccc1
inactive: [4] 96 % of control | [5] 98 % of control

C=CCN1CCc2c([nH]c3cc(OC)ccc23)C1C (stereo not given)
inactive: dose: 9.0 mg/kg/injection, schedule: Q01DX005 (ip), vehicle: Klucel (hydroxypropylcellulose) (HPC) 95 % of control | dose: 18.0 mg/kg/injection, schedule: Q01DX005 (ip), vehicle: Klucel (hydroxypropylcellulose) (HPC) 94 % of control | dose: 36.0 mg/kg/injection, schedule: Q01DX005 (ip), vehicle: Klucel (hydroxypropylcellulose) (HPC) 89 % of control | dose: 72.0 mg/kg/injection, schedule: Q01DX005 (ip), vehicle: Klucel (hydroxypropylcellulose) (HPC) 94 % of control | dose: 144.0 mg/kg/injection, schedule: Q01DX005 (ip), vehicle: Klucel (hydroxypropylcellulose) (HPC) 94 % of control

Cc1cc(C)n(-c2ccc([N+](=O)[O-])cn2)n1
inactive: [18] 99 % of control | [19] 96 % of control | [20] 99 % of control

Cc1nn(C(=O)c2ccncc2)c(C)c1N=Nc1ccc(-c2ccc(N)cc2)cc1
inactive: [13] 99 % of control | [14] 90 % of control | [15] 90 % of control

CCNC(=O)OCc1c(COC(=O)NCC)c(-c2ccc(Cl)c(Cl)c2)n2c1CCC2
inactive: dose: 20.0 mg/kg/injection, schedule: Q01DX009 (ip), vehicle: distilled water + Tween-80 90 % of control
active: dose: 2.5 mg/kg/injection, schedule: Q01DX009 (ip), vehicle: distilled water + Tween-80 152 % of control | dose: 6.25 mg/kg/injection, schedule: Q01DX009 (ip), vehicle: saline with Tween-80 154 % of control and 168 % of control | dose: 10.0 mg/kg/injection, schedule: Q01DX009 (ip), vehicle: distilled water + Tween-80 180 % of control | [11] 166 % of control and 168 % of control and 170 % of control

CC1=CC(=N/Cl)/C=CC/1=N/Cl
inactive: [21] 109 % of control | [22] 111 % of control | [23] 114 % of control

Cc1cc[n+](C2=C(Nc3ccccc3)C(=O)c3ccccc3C2=O)cc1
inactive: [16] 106 % of control | [17] 114 % of control | [4] 116 % of control and 122 % of control | [5] 118 % of control

COc1cc(/C=C/C(C)=N/NC(N)=O)cc(OC)c1OC
inactive: dose: 30.0 mg/kg/injection, schedule: Q01DX005 (ip), vehicle: Klucel (hydroxypropylcellulose) (HPC) 103 % of control | [6] 100 % of control | [7] 103 % of control | [8] 104 % of control

NC1=NS(=O)(=O)N=C(N)C1=NNc1ccc([N+](=O)[O-])cc1
inactive: dose: 100.0 mg/kg/injection, schedule: Q01DX001 (ip), vehicle: saline with Tween-80 108 % of control | dose: 200.0 mg/kg/injection, schedule: Q01DX001 (ip), vehicle: saline with Tween-80 92 % of control | dose: 400.0 mg/kg/injection, schedule: Q01DX001 (ip), vehicle: saline with Tween-80 96 % of control

Cc1c(NC(=O)Nc2ccc(F)cc2)c(=O)n(-c2ccccc2)n1C
inactive: dose: 60.0 mg/kg/injection, schedule: Q01DX005 (ip), vehicle: saline with Tween-80 114 % of control | dose: 120.0 mg/kg/injection, schedule: Q01DX005 (ip), vehicle: saline with Tween-80 99 % of control | dose: 240.0 mg/kg/injection, schedule: Q01DX005 (ip), vehicle: saline with Tween-80 96 % of control

CC1(C)CC(=O)C=C(NCCO)C1
inactive: [21] 96 % of control | [22] 91 % of control | [23] 96 % of control

COC1(C2COc3cc(OCc4ccccc4)ccc3C2=O)C=C2OCOC2=CC1=O (stereo not given)
inactive: dose: 12.5 mg/kg/injection, schedule: Q01DX005 (ip), vehicle: Klucel (hydroxypropylcellulose) (HPC) 99 % of control | dose: 25.0 mg/kg/injection, schedule: Q01DX005 (ip), vehicle: Klucel (hydroxypropylcellulose) (HPC) 96 % of control | dose: 50.0 mg/kg/injection, schedule: Q01DX005 (ip), vehicle: Klucel (hydroxypropylcellulose) (HPC) 89 % of control

COC1OCN(C2CCCCC2)CC1(C)C (stereo not given)
inactive: dose: 17.5 mg/kg/injection, schedule: Q01DX009 (ip), vehicle: saline with Tween-80 100 % of control | dose: 35.0 mg/kg/injection, schedule: Q01DX009 (ip), vehicle: saline with Tween-80 104 % of control | dose: 70.0 mg/kg/injection, schedule: Q01DX009 (ip), vehicle: saline with Tween-80 117 % of control

CC(C)=CCCC(C)(OC1OC(COC2OC(CO)C(O)C2O)C(O)C(O)C1O)C1CCC2(C)C1C(O)CC1C3(C)CCC(OC4OC(CO)C(O)C(O)C4OC4OC(CO)C(O)C(O)C4O)C(C)(C)C3CCC12C (stereo not given)
inactive: dose: 2.0 mg/kg/injection, schedule: Q01DX009 (ip), vehicle: Klucel (hydroxypropylcellulose) (HPC) 88 % of control | dose: 4.0 mg/kg/injection, schedule: Q01DX009 (ip), vehicle: Klucel (hydroxypropylcellulose) (HPC) 95 % of control | dose: 8.0 mg/kg/injection, schedule: Q01DX009 (ip), vehicle: Klucel (hydroxypropylcellulose) (HPC) 104 % of control | dose: 16.0 mg/kg/injection, schedule: Q01DX009 (ip), vehicle: Klucel (hydroxypropylcellulose) (HPC) 114 % of control | dose: 32.0 mg/kg/injection, schedule: Q01DX009 (ip), vehicle: Klucel (hydroxypropylcellulose) (HPC) 98 % of control

CC1=CCC(C(C)C)C=C1 (stereo not given)
inactive: [2] 100 % of control | [18] 105 % of control | [19] 100 % of control | [20] 105 % of control

CN(C)CCC(OC(=O)C(c1ccccc1)c1ccccc1)c1ccccc1 (stereo not given)
inactive: [4] 101 % of control | [5] 103 % of control

C/C=C/C(=O)Nc1ncc([N+](=O)[O-])s1
inactive: [13] 111 % of control | [14] 114 % of control | [15] 113 % of control
